Paper PMC3242765, “Inhibitors of Alphavirus Entry and Replication Identified with a Stable Chikungunya Replicon Cell Line and Virus-Based Assays” (PLoS ONE, 2011)
“And” between values parts separate entries of the source, which are not always exact repeats. Equal values may be shown once. Where a name gives a salt, the structure may show the parent alone.

How the values were obtained:
CHIKV replicon = test: microbe, parasite or virus in culture; assay type: cell-based, Chikungunya virus (CHIKV)

| Structure (SMILES) | CHIKV replicon % left (CHIKV replicon) | SFV replication % left (surviving fraction, remaining percentage of SFV replication) (SFV-Rluc) |
| --- | --- | --- |
| C[C@@]12CCC[C@H]1[C@@H]1CC[C@H]3CCCC[C@]3(C)[C@H]1CC2 [4-a-Androstane] | 85.5% | 53.0% |
| Nc1nc(=O)c2nc(CNc3ccc(C(=O)N[C@@H](CCC(=O)O)C(=O)O)cc3)cnc2[nH]1 [Folic acid] | 78.1% | 100.0% |
| O=C(OC[C@H]1OC(O)[C@@](O)(COC(=O)c2cc(O)c(O)c(O)c2)[C@@H]1O)c1cc(O)c(O)c(O)c1 (stereo partly shown) [Hamamelitannin] | 40.1% | 14.7% |
| Cc1nnc(NS(=O)(=O)c2ccc(N)cc2)s1 [Sulfamethizole] | 79.1% | 100.4% |
| COc1ccc(O)c(C(C)(C)C)c1 [Butylated hydroxyanisole] | 79.9% | 66.8% |
| CCOC(=O)c1ccc(O)cc1 [Ethyl 4-hydroxybenzoate] | 94.4% | 127.8% |
| CCCC(C)C1(CC)C(=O)NC(=O)NC1=O (stereo not shown) [Pentobarbital] | 104.3% | 70.5% |
| CCOc1ccc2c(c1)C(C)=CC(C)(C)N2 [Ethoxyquin] | 83.6% | 96.4% |
| Cc1cnc(NS(=O)(=O)c2ccc(N)cc2)nc1 [Sulfaperine] | 100.8% | 127.8% |
| CN(C)CC/C=C1/c2ccccc2Sc2ccc(Cl)cc21 [Chlorprothixene hydrochloride] | 78.2% | 90.3% |
| NC(=O)c1ccccc1O [Salicylamide] | 38.2% | 126.2% |
| CCCOC(=O)c1cc(O)c(O)c(O)c1 [n-Propyl gallate] | 39.4% | 33.6% |
| COc1ccc(C(=O)Cc2c(CCN(C)C)cc3c(c2OC)OCO3)c(C(=O)O)c1OC [Narceine] | 70.7% | 118.3% |
| CC(CN(C)C)CN1c2ccccc2Sc2ccccc21.CC(CN(C)C)CN1c2ccccc2Sc2ccccc21.O=C(O)C(O)C(O)C(=O)O (stereo not shown) [Trimeprazine tartrate] | 100.5% | 120.4% |
| O=c1oc2cc(O)ccc2cc1-c1nc2ccccc2o1 [3-(2-Benzoxazolyl)umbelliferone] | 61.8% | 21.0% |
| Cc1ccc2oc(=O)ccc2c1 [6-Methylcoumarin] | 106.5% | 83.6% |
| CN1CCN(CCCN2c3ccccc3Sc3ccc(Cl)cc32)CC1 [Prochlorperazine] | 71.9% | 51.4% |
| COc1c2occc2cc2ccc(=O)oc12 [Xanthotoxin] | 95.4% | 86.7% |
| Cc1cc(C)nc(NS(=O)(=O)c2ccc(N)cc2)n1 [Sulfamethazine] | 100.5% | 91.7% |

| Structure (SMILES) | CHIKV replicon % left (CHIKV replicon) | SFV replication % left (surviving fraction, remaining percentage of SFV replication) (SFV-Rluc) |
| --- | --- | --- |
| CC(C)(O)C(Cl)(Cl)Cl [Chlorobutanol] | 95.1% | 84.2% |
| COc1ccc2c(C)cc(=O)oc2c1 [7-Methoxy-4-methylcoumarin] | 100.6% | 72.2% |
| O=C1CN(/N=C/c2ccc([N+](=O)[O-])o2)C(=O)N1 [Nitrofurantoin] | 60.9% | 58.9% |
| CC(Cc1ccc(O)c(O)c1)C(C)Cc1ccc(O)c(O)c1 (stereo not shown) [Nordihydroguaiaretic acid] | 28.3% | 35.6% |
| O=c1c(O)c(-c2ccc(O)c(O)c2)oc2c(O[C@@H]3O[C@H](CO)[C@@H](O)[C@H](O)[C@H]3O)c(O)cc(O)c12 [Gossypin] | 104.3% | 105.8% |
| CC(C)NCC(O)COc1cccc2[nH]ccc12 (stereo not shown) [Pindolol] | 72.1% | 86.2% |
| NS(=O)(=O)c1cc2c(cc1Cl)NCNS2(=O)=O [Hydrochlorothiazide] | 70.2% | 121.2% |
| COc1cc(OC)c2ccc(=O)oc2c1 [Citropten] | 106.4% | 67.4% |
| CCS(=O)(=O)CCn1c([N+](=O)[O-])cnc1C [Tinidazole] | 100.5% | 104.1% |
| CC1=CC(=O)c2ccccc2C1=O [Menadione [2-Methyl-1,4-naphtoquinone]] | 31.1% | 28.3% |
| Cc1cc(C(C)(C)C)cc(C)c1CC1=NCCN1 [Xylometazoline] | 78.2% | 94.2% |
| O=C1c2c(O)cccc2Cc2cccc(O)c21 [1,8-Dihydroxyanthrone] | 40.9% | 27.2% |
| O=c1ccc2ccc(O)cc2o1 [Umbelliferone] | 106.5% and 100.7% | 93.1% and 78.4% |
| CCN(CC)c1ccc2cc(-c3nc4ccccc4[nH]3)c(=O)oc2c1 [Coumarin 7] | 51.8% | 37.3% |
| Cn1c(=O)c2c(ncn2CC(O)CO)n(C)c1=O (stereo not shown) [7-(2,3-Dihydroxypropyl)theophylline] | 54.3% | 100.1% |
| COc1cc(NS(=O)(=O)c2ccc(N)cc2)nc(OC)n1 [Sulfadimethoxine] | 39.1% | 102.4% |
| O=c1ccc2ccc(O)c(O)c2o1 [Daphnetin] | 103.7% and 92.1% | 90.6% and 81.7% |
| CCCCC1(CC)C(=O)NC(=O)NC1=O [Butethal] | 78.2% | 45.2% |
| CCC1(c2ccccc2)C(=O)NC(=O)NC1=O [Phenobarbital sodium] | 70.8% | 88.1% |

| Structure (SMILES) | CHIKV replicon % left (CHIKV replicon) | SFV replication % left (surviving fraction, remaining percentage of SFV replication) (SFV-Rluc) |
| --- | --- | --- |
| Nc1ccc(C(=O)O)cc1 [p-Aminobenzoic acid] | 105.4% | 56.5% |
| Oc1cc(O)c2cc(O)c(-c3ccc(O)c(O)c3)[o+]c2c1 [Cyanidin chloride] | 54.8% | 24.5% |
| O=C(O)c1ccc(O)c(O)c1 [3,4-Dihydroxybenzoic acid] | 101.6% | 124.5% |
| OCc1ccccc1O[C@@H]1O[C@H](CO)[C@@H](O)[C@H](O)[C@H]1O [D(-)-Salicin] | 99.4% | 104.4% |
| Cc1cc(NS(=O)(=O)c2ccc(N)cc2)no1 [Sulfamethoxazole] | 100.5% | 77.5% |
| Nc1ccc(S(=O)(=O)Nc2nccs2)cc1 [Sulfathiazole] | 78.5% | 138.1% |
| CCCCCCCCCCCCCCCC[N+](C)(C)C [Cetrimonium bromide] | 80.5% | 75.0% |
| CN(C)c1cccc2c(S(=O)(=O)Cl)cccc12 | 10.4% | 4.6% |
| O=C(O)c1cc(-c2ccccc2)nc2ccccc12 [Cinchophen] | 51.2% | 65.1% |
| O=C(O)[C@]1(O)C[C@@H](O)[C@@H](O)[C@H](O)C1 [(-)-Quinic acid] | 106.9% | 98.2% |
| NC(=O)c1cccnc1 [Nicotinamide] | 99.1% | 116.9% |
| CCc1nnc(NS(=O)(=O)c2ccc(N)cc2)s1 [Sulfaethidole] | 100.4% | 106.4% |
| Nc1ccc(S(=O)(=O)Nc2ncccn2)cc1 [Sulfadiazine] | 81.2% | 107.7% |
| COc1ccc(CN(CCN(C)C)c2ccccn2)cc1 [Pyrilamine maleate] | 85.4% | 73.7% |
| CC(C)NCC(O)c1ccc(O)c(O)c1.CC(C)NCC(O)c1ccc(O)c(O)c1.O=S(=O)(O)O (racemic) [(+/-)-Isoproterenol hemisulfate salt] | 105.1% | 110.9% |
| O=C(O)c1cccc(O)c1O [2,3-Dihydroxybenzoic acid] | 105.1% | 93.1% |
| Cl.Cl.OCCN1CCN(CC/C=C2/c3ccccc3Sc3ccc(C(F)(F)F)cc32)CC1 [Cis(Z)-Flupentixol dihydrochloride] | 102.7% | 92.6% |
| CCNCC(O)c1cccc(O)c1 (stereo not shown) [Etilefrin] | 87.1% | 116.8% |
